The nature of assay [1]: Anti-oxidant effect by using DPPH. It is filed as biochemical. As to conditions: read-out: DPPH anti-oxidant effect (IC50); concentration decreasing absorbance at 517 nm to 50%; 30 min, room temperature. On the procedure: DPPH (1,1-diphenyl-2-picrylhydrazyl) is a stable free radical and has a purple color. […] Herein, the term “IC50” refers to the concentration of a compound which decreases absorbance at 517 nm to 50% of the original value.
180 μl of DPPH solution (200 μM in DMSO) was dispensed into each well of a 96-well plate, and 20 μl of compounds, which was serially diluted two-fold from 2,000 μM, was added thereto. They were then well mixed and kept at room temperature for 30 minutes. After 30 minutes, O.D. value at 517 nm was measured with a spectraMAX ELISA reader.
For orientation: DPPH is a stable violet radical that fades when it is reduced.

The subject of assay [2] is H9C2 cells. In words: Cell protection effect against oxidative stress induced by tBOOH (SRB staining). It is filed as cell-based. As to conditions: Rattus norvegicus, 400 μM tBOOH 2 hrs, concentration protecting 50% of cells from necrosis. On the procedure: It is known that tertiary-butylhydroperoxide (tBOOH) induces cell necrosis by causing oxidative stress in various cells. […] H9C2 cells were dispensed into each well of a 96-well plate (1.5×10 ^4 cells/100 μl/well). The next day, the cells were pretreated with each compound and then treated with tBOOH (final concentration: 400 μM) for 2 hrs. 50 μl of formaldehyde was added to each well to fix the cells. Cells were fixed for 30 minutes and washed with distilled water three times. Then, the plate was completely dried in a 50° C. dry oven and SRB solution was added thereto to stain remaining protein. The plate was washed with 1% acetic acid and dried. […] Herein, the term “IC50” refers to the concentration of compound which protects 50% of cells from necrosis induced by tBOOH treatment.
On the technique in general: Sulforhodamine B stains cellular protein and so reports cell mass.

The nature of assay [3]: Direct anti-oxidant effect on H2O2 (DHR123 probe, cell-free). It is filed as biochemical. As to conditions: DHR123 1.25 μM, 2 hrs. How it is done:
(§1) 10 μl of DHR123 probe (final concentration: 1.25 μM) was added to 10 μl of each compound which was diluted with 100 μl of DMEM complete media. H2O2 and tBOOH were added as the concentration shown in the following Table 5 and after 2 hrs, fluorescence at wavelengths (480 nm (ex)/538 nm (em)) was measured with spectraMax gemini. Herein, the term “IC25” refers to the concentration of compound which causes 25% decrease of fluorescence assuming the amount emitted by oxidation of DHR123 caused by H2O2 or tBOOH was 100%.

Assay [4] is described as follows: Direct anti-oxidant effect on tBOOH (DHR123 probe, cell-free). It is filed as biochemical. As to conditions: DHR123 1.25 μM, 2 hrs. On the procedure:
as §1

Assay [5] can be described thus: Removal capacity of ONOO− (peroxynitrite) by using dihydrorhodamine 123. It is filed as biochemical. As to conditions: 50% inhibition of DHR123 oxidation by 1 μM ONOO−. How it is done: ONOO^− (peroxynitrite), which is known as a kind of RNS, plays a very important role in oxidative stress. Thus, it is very important to evaluate the removal capacity of ONOO^− of necrosis inhibitors. It is well known that DHR123 probe is oxidized by ONOO^−. Thus, by using such a property, the capacity of each compound was measured.
10 μl of each compound, which was serially diluted 3-fold from 50 μM, was dispensed into each well of a 96-well plate, and then 170 μl of assay mixture (10 μM DHR123, 1×PBS, 100 μM DPTA without ONOO^−) was added to each well. Finally, 20 μl of ONOO^− solution (final concentration: 1 μM) was added to initiate a reaction. Herein, the term “IC50” refers to the concentration of compounds which causes 50% inhibition of oxidation of DHR123 by ONOO^−.

The test system of assay [6] is H9C2 cells. Kind of assay: Anti-oxidant effect by using dihydrorhodamine 123 in tBOOH-treated H9C2 cells. It is filed as cell-based. The note with it: 1 hr pretreatment, 400 μM tBOOH 2 hrs, 25% inhibition of DHR123 fluorescence. How it is done: Dihydrorhodamine 123 itself is nonfluorescent but is converted to fluorescent rhodamine 123 when it is oxidized by ROS (reactive oxygen species) or RNS (reactive nitrogen species). […] H9C2 cells were dispensed into each well of a 96-well plate (1.5×10^4 cells/100 μl/well). The next day, the cells were pretreated with each compound, which was serially diluted 3-fold from the highest concentration, for 1 hr, and then treated with 10 μl of DHR123 12.5 μM stock solution (final concentration: 1.25 μM) in 37° C. incubator for 30 minutes. The cells were then immediately treated with 400 μM tBOOH and incubated for 2 hrs. Then, fluorescence, which was excited at 480 nm and emitted at 538 nm, was measured with a spectraMAX Gemini microplate reader. […] PBS. Then 100 μl of PBS was added to each well of the 96-well plate and fluorescence of each cell was measured by immunofluorescence microscopy (fluorescence microscope: Olympus) (Because of DHR123 in cells, fluorescence is emitted in proportion to oxidation). In addition, inhibition of the generation of superoxide was measured with MitoSOX red probe (final concentration: 5 μM) as the same method.

Consider `Cc1cc(NC2CCCC2)c2[nH]c(C3=N[C@@H](CC(=O)O)CS3)cc2c1` [Compound 1, [(S)-2-(7-cyclopentylamino-5-methyl-1H-indol-2-yl)-4,5-dihydro-thiazol-4-yl]-acetic acid], for which the IC50 (as a rule, the midpoint of a concentration-inhibition curve) in assay [1] came to 24 µM.
`Cc1cc(NC2CCOCC2)c2[nH]c(C3=N[C@@H](CC(=O)O)CS3)cc2c1` [Compound 2, {(S)-2-[5-methyl-7-(tetrahydropyran-4-ylamino)-1H-indol-2-yl]-4,5-dihydro-thiazol-4-yl}-acetic acid]: the IC50 in assay [1] was 24 µM; in assay [2] it was 6.5 µM.
As to `Cc1cc(NC2CCCC2)c2[nH]c(C3=N[C@@H](CC(=O)O)CO3)cc2c1` [Compound 3, [(S)-2-(7-cyclopentylamino-5-methyl-1H-indol-2-yl)-4,5-dihydro-oxazol-4-yl]-acetic acid], in assay [1], the IC50 came to 17.5 µM. In assay [3], the “IC25(μM) H2O2 (0.3 mM)” value was determined as 2.2 µM and the “IC25(μM) H2O2 (0.6 mM)” value came out at 2.15 µM. In assay [4], the “IC25(μM) tBOOH (0.2 mM)” value was 2 µM and the “IC25(μM) tBOOH (0.4 mM)” value was 2.4 µM.
On the same counts, the results for `O=C(O)C[C@H]1CSC(c2cc3cccc(NC4CCCC4)c3[nH]2)=N1` [Compound 4, [(S)-2-(7-cyclopentylamino-1H-indol-2-yl)-4,5-dihydro-thiazol-4-yl]-acetic acid] are 15 µM, 2.3 µM, 3.6 µM, 3 µM and 5.8 µM.
Take `O=C(O)C[C@H]1CSC(c2cc3cc(Oc4ccccc4)cc(NC4CCCC4)c3[nH]2)=N1` [Compound 5, [(S)-2-(7-cyclopentylamino-5-phenoxy-1H-indol-2-yl)-4,5-dihydro-thiazol-4-yl]-acetic acid]: the IC50 in assay [1] was 20 µM; in assay [5], 3.4 µM.
Turning to `O=C1CN(CC[C@H]2CSC(c3cc4cc(Oc5ccccc5)cc(NC5CCCC5)c4[nH]3)=N2)CCN1` [Compound 6, 4-{2-[(S)-2-(7-cyclopentylamino-5-phenoxy-1H-indol-2-yl)-4,5-dihydro-thiazol-4-yl]-ethyl}-piperazin-2-one], the IC50 was found to be 23 µM in assay [1] and 0.13 µM in assay [2].
`Cc1nnc2n1CCN(CC[C@]1(c3cc4cc(Oc5ccccc5)cc(NC5CCCC5)c4[nH]3)CSC=N1)C2` [Compound 7, cyclopentyl-(2-{(S)-4-[2-(3-methyl-5,6-dihydro-8H-[1,2,4]triazolo[4,3-a]pyrazin-7-yl)-ethyl]-4,5-dihydro-thiazol-4-yl}-5-phenoxy-1H-indol-7-yl)-amine]: the half-inhibitory concentration (IC50) in assay [1] was found to be 25 µM.
On the same count and under the same terms, next, `O=C(O)C[C@H]1CSC(c2cc3cccc(NCC4CCOCC4)c3[nH]2)=N1` [Compound 8, ((S)-2-{7-[(tetrahydropyran-4-ylmethyl)-amino]-1H-indol-2-yl}-4,5-dihydro-thiazol-4-yl)-acetic acid]: 20.5 µM.
In the case of `O=S1(=O)CCN(Cc2cc(NC3CCOCC3)c3[nH]c(-c4ccccc4)cc3c2)CC1` [Compound 9, (tetrahydropyran-4-yl)-[2-phenyl-5-(1,1-dioxo-thiomorpholin-4-yl)methyl-1H-indol-7-yl]-amine], in assay [6], the “IC25 (μM), anti-oxidant effect by using DHR 123” value (“IC25 (μM), anti-oxidant effect” for short) came to 0.10 µM. Further, the IC50 in assay [2] is less than 0.2 µM.
For the molecule `O=S1(=O)CCN(Cc2cc(NCC3CCOCC3)c3[nH]c(-c4ccccc4)cc3c2)CC1` [Compound 10, [5-(1,1-dioxo-thiomorpholin-4-yl)methyl-2-phenyl-1H-indol-7-yl]-(tetrahydropyran-4-yl)methyl-amine], the IC50 in assay [1] was found to be 22 µM.
On to `O=S1(=O)CCN(Cc2cc(N(CC3CCOCC3)CC3CCOCC3)c3[nH]c(-c4ccccc4)cc3c2)CC1` [Compound 11, [5-(1,1-dioxo-thiomorpholin-4-yl)methyl-2-phenyl-1H-indol-7-yl]-bis-[(tetrahydropyran-4-yl)methyl]-amine], for which, in assay [1], the IC50 turned out to be 12.5 µM.
Regarding `O=C(C1CCCOC1)N1CCC(Nc2cc(CN3CCS(=O)(=O)CC3)cc3cc(-c4ccccc4)[nH]c23)CC1` (centres unmarked) [Compound 12, {4-[5-(1,1-dioxo-thiomorpholin-4-yl)methyl-2-phenyl-1H-indol-7-ylamino]-piperidin-1-yl}-(tetrahydropyran-3-yl)methanone], the IC50 in assay [1] stood at 19 µM. Also, the “IC25 (μM), anti-oxidant effect” value in assay [6] turned out to be 0.24 µM. This molecule had an IC50 in assay [5] of 0.21 µM. In addition, in assay [3], the “IC25(μM) H2O2 (0.3 mM)” value is 1.65 µM and the “IC25(μM) H2O2 (0.6 mM)” value worked out at 2 µM. For the same molecule, in assay [4], the “IC25(μM) tBOOH (0.2 mM)” value was 1.95 µM and the “IC25(μM) tBOOH (0.4 mM)” value amounted to 3 µM.
`CS(=O)(=O)N1CCC(Nc2cc(CN3CCS(=O)(=O)CC3)cc3cc(-c4ccccc4)[nH]c23)CC1` [Compound 13, [5-(1,1-dioxo-thiomorpholin-4-yl)methyl-2-phenyl-1H-indol-7-yl]-(1-methylsulfonyl-piperidin-4-yl)-amine]: the concentration for half-maximal inhibition (IC50) in assay [1] was 17 µM; in assay [2], less than 0.2 µM; in assay [5], 0.9 µM. In assay [6], the “IC25 (μM), anti-oxidant effect” value was less than 0.1 µM.
In the case of `Cc1cc(NCC2CCOCC2)c2[nH]c(C3=N[C@@H](CC(=O)O)CS3)cc2c1` [Compound 14, ((S)-2-{5-methyl-7-[(tetrahydropyran-4-ylmethyl)-amino]-1H-indol-2-yl}-4,5-dihydro-thiazol-4-yl)-acetic acid], the figures for the IC50 in assay [1] and in assay [2] were 28 µM and 0.72 µM, respectively.
In turn, `c1ccc(-c2nc3cccc(NC4CCCC4)c3[nH]2)cc1` [Example 1, cyclopentyl-(2-phenyl-3H -benzimidazol-4-yl)-amine] registered an IC50 in assay [2] of 0.6 µM.
Same read-out and setting: as for `c1ccc(-c2nc3cccc(NC4CCOCC4)c3[nH]2)cc1` [Example 2, (2-phenyl-3H-benzimidazol-4-yl)-(tetrahydro-pyran-4-yl)-amine], the figure is 2 µM.

These data come from patent publication US10322135B2, “Pharmaceutical composition comprising indole compound” (LG CHEM, LTD., priority 2009, dated 2019).
